{"source": "patent US6740637B1", "about": "“Chlorophyll and bacteriochlorophyll derivatives, their preparation and pharmaceutical compositions comprising them” (priority 1998, dated 2004)", "key": {"[1]": {"system": "Herpes simplex virus-1 (HSV-1) (in free suspension)", "test": "PDT of HSV-1 in suspension, plaque assay", "type": "cell-based, Herpes simplex virus type 1", "method": "For viral infection Vero cells (2×10^4/well) were cultured at 37° C. for 2 days in 24 well microplates. The culture medium was replaced with fresh medium containing 2% FBS and the cells infected with HSV-1 (200 μl) at multiplicity of infection (MOI) of 1-3. The cells were further incubated at 37° C. for 3 days. The medium was collected and centrifuged for 5 min in a clinical centrifuge to remove cells and cell debris. The concentration of viral particle was determined as described below and the suspension was aliquoted and kept at −80° C. until used.\nVero cells were inoculated with 10 fold dilutions of HSV-1 and cultured for 2 h at 37° C. The medium was then replaced with fresh DMEM containing 2% FBS and 0.7% methylcellulose and the cells were further incubated for 3 days. The overlayer was then decanted and the cells fixed and stained with crystal violet. Virus induced plaques were manually counted and plaque forming units (PFU/ml) were calculated.\nHSV-1 suspended in culture medium to a concentration of 2×10^6 PFU/ml was dispensed (0.5 ml/well) into 24 well microplates and incubated in the dark for 1 h at 37° C. in the absence or presence of the indicated Chl-Ser concentrations. The experimental groups were then exposed to light for 10 min. The appropriate controls described above were included in each experiment. Viral survival was quantitated as described above."}, "[2]": {"system": "Propionibacterium Acnes (under aerobic conditions)", "type": "cell-based", "method": "(§1) 1. Preincubation: Bacteria or viruses were preincubated in the absence (untreated control) or presence of increasing concentration of photosensitizer for 1-2 h at room temperature or 37° C. in the dark.\n(§2) 2. Illumination: One set of untreated control and one set of sensitizer treated samples were exposed to light for 5-10 min. An identical group was kept in the dark (dark control).\n(§3) 3. Viability: samples of the controls and experimental groups were subjected for quantitation of survival and viability was calculated as per cent of untreated control.\n(§4) The light source for illumination was a 250W halogen lamp. The light was focused on a glass support and filtered to eliminate light below 630 nm. The light intensity at the target level was 1500 μEinstein/cm^2. Illumination for Bchl-Ser against S. aureus was performed as described Example 17 herein.\n(§5) Stocks of bacteria (S. aureus, B. subtilis, E. coli) were preserved on solid LB agar slants at 4° C. Two hours prior to the experiment, bacteria were transferred to liquid LB media and grown at 37° C. with continuous shaking. P. Acnes (ATCC-CR 6919) bacteria were grown on agar 1053 reinforced clostridial medium (Oxoid CM 149 ) and incubated at 37° C. Culturing was performed in transparent culture jars made anaerobic with a gas generator envelop containing palladium catalyst, (Gas pack Plus Anaerobic system envelopes with Palladium catalyst, Beckton Dickenson Cockesyville Md. 21030 USA) (anaerobic culture) or in the open air (aerobic culture) The bacteria were incubated for 3-4 days before the experiments were carried out.\n(§6) Aliquots (20 or 30 μl) of bacterial suspensions were plated on LB agar plates for 24 h at 37° C. ((S. aureus, B. subtilis, E. coli)) or on agar 1053 reinforced clostridial medium (P.acnes). Colonies were counted and per cent viability was calculated from untreated control.\n(§7) P. Acnes bacteria at an optical density of A650 nm=0.014 were diluted in PBS to 1:10^−3 and divided into test tubes. Samples of 200 μl were either non treated or incubated with increasing concentration of Chl-Ser. Samples kept in dark were rapped with aluminum foil. All the tubes were placed in the anaerobic jar and incubated for 2 h at 37° C. The anaerobic chamber was placed on the glass support of the light source and samples were illuminated for 5 min. Test tubes with bacteria and sensitizers for the aerobic experiments were left in culture incubator for 2 h and exposed to light for 5 min in the open air. Samples of 20 μl from the anaerobic and aerobic experiments were taken out and spread onto agar plates and culture under anaerobic conditions. After 4 days of anaerobic incubation at 37° C. the colonies formed were counted and per cent viable cells calculated from control. Survival curves were determined based on 6-7 experiments. PDT experiments performed on S. Aureus with Bchl-Ser were conducted as described in Example 17 herein."}, "[3]": {"system": "Propionibacterium Acnes (under anaerobic conditions)", "type": "cell-based", "method": "as §1, §2, §3, §4, §5, §6, §7"}, "C57Bl mice": {"system": "C57Bl mice", "test": "Toxicity of serine conjugates in mice in the absence of irradiation", "type": "in vivo, mouse", "conditions": "injections of up to 40 mg/kg body weight, up to 14 days, no irradiation", "method": "(d) Toxicity of the Chl and Bchl-serine conjugates Chla-L-Ser-OMe and Bchla-L-Ser-OMe in C57Bl mice under normal housing conditions in the absence of irradiation was estimated by injection of the compound dissolved in 10% ethanol/PBS. Control mice were injected with the vehicle only. […] This dose of drug was thus far the highest used and LD50 vs. EC50 of treatment (margins of therapeutic index) have yet to be determined."}, "M2R mouse melanoma cells": {"system": "M2R mouse melanoma cells", "test": "Photodynamic toxicity to melanoma cell monolayer: morphology and Propidium Iodide staining", "type": "cell-based", "conditions": "4×10^−6M pigment, 10 min irradiation at 670 nm (light source A), examined 3 h later", "method": "The photodynamic effect of Chlidea and Chla-L-Ser-OMe conjugate on melanoma cells in culture was tested as follows: M2R mouse melanoma cells as monolayers (to 100% confluence) were treated with the pigments Chla, Chlidea and Chla-L-Ser-OMe for 30 minutes. Subsequently the cultures were irradiated for 10 minutes from the top with a 5mW GaAs diode laser at 670 nm (light source A), a 150W Xenon lamp at 5000 μEinstein/cm^2 (light source B), or a 90W halogen lamp at 1500 μEinstein (light source C). The control groups included untreated cells, pigment- treated cells that were kept in the dark and irradiated untreated cells. Three hours after irradiation, the changes in cell morphology due to irradiation were examined by phase contrast microscopy.\nEvaluation of the cytolytic activity of the various Chl and Bchl derivatives was carried out by assessing cell death in the photodynamically treated area of the monolayer by staining of the cells with, and monitoring the red fluorescence of, Propidium Iodide ([2,7-diamino-9-phenyl-10-(diethylamino-propyl)-phenathridinium iodide meth-iodide]) (PID) which is excluded from intact/live cells and selectively accumulates in nuclei of damaged cells. Examination of fluorescing nuclei in the stained culture was done by fluorescence microscopy (Yeh, 1981). […]"}}, "note": "Entries after “also recorded” stand apart in the source; their conditions may differ."}
{"smiles": "C=Cc1c(C)c2cc3nc(c4c5[n-]c(cc6nc(cc1[n-]2)C(C)=C6CC)c(C)c5C(=O)[C@@H]4C(=O)OC)[C@@H](CCC(=O)OC[C@H](N)C(=O)OC)[C@@H]3C.[Mg+2]", "note": "[Chla-L-Ser-OMe, L-seryl Methyl Ester Chlorophyllidea]", "values": [{"measurement": "concentration of maximal toxicity", "setting": "[1]", "result": "> 20", "unit": "nM"}, {"measurement": "EC50", "setting": "[1]; 1 h with Chl-Ser, light 10 min, read-out: half maximal dose of sensitizer", "result": "~0.01", "unit": "µM"}, {"measurement": "toxicity in the dark", "setting": "[1]; tested concentration range, dark", "result": "not toxic in the dark"}, {"measurement": "colony counts with sensitizer alone in dark", "setting": "[2]", "result": "not different from those of untreated samples"}, {"measurement": "LD50", "setting": "[2]; aerobic conditions, light 5 min", "result": 10, "unit": "nM"}, {"measurement": "phototoxicity in the presence of light", "setting": "[2]; concentration range of 0.1 to 1×10^−7M, aerobic", "result": "dose dependent phototoxicity"}, {"measurement": "colony counts with sensitizer alone in dark", "setting": "[3]", "result": "not different from those of untreated samples"}, {"measurement": "LD50", "setting": "[3]; anaerobic conditions, light 5 min", "result": 30, "unit": "nM"}, {"measurement": "phototoxicity in the presence of light", "setting": "[3]; concentration range of 0.1 to 1×10^−7M, anaerobic", "result": "dose dependent phototoxicity"}, {"measurement": "effect on behavior and well being of mice", "setting": "C57Bl mice", "result": "no noticeable effect on the behavior and well being of the mice"}, {"measurement": "cell damage: morphology and PID labeling after irradiation", "setting": "M2R mouse melanoma cells", "result": "cell damage was confined to the photodynamically treated area; also recorded: all the remaining damaged cells in area (A) became PID labeled"}]}
